In one series the test system is Amyloid-β deposits. The note with it: in vivo; cited from earlier work.
Another series deals with neurological behaviours. The series can be described thus: Restoring neurological behaviours on uptake of phytosterols. The note with it: uptake of the phytosterol. The series is classed as in vivo.
Series [1] in a line: Side effects on uptake of phytosterols (compared with synthetic LXRα/β activators). In kind it is in vivo. Particulars: side effects caused normally by synthetic LXRα/β activators.
The test system of the next series is cholesterol absorption. Particulars: by competing with cholesterol absorption; cited from earlier work.

On to `CCCCCc1cc(O)c2c(c1)OC(C)(C)[C@@H]1CCC(C)=C[C@@H]21` [THC, Δ^9-tetrahydrocannabidiol], for which the “removal of the toxic clumps of Amyloid-β deposits in the brain” value in the series with Amyloid-β deposits is on record as “promote the removal of the toxic clumps of Amyloid-β deposits”.

`C/C=C(\CC[C@@H](C)[C@H]1CC[C@H]2[C@@H]3CC=C4C[C@@H](O)CC[C@]4(C)[C@H]3CC[C@]12C)C(C)C` [Fucosterol]: in the series with neurological behaviours, the restore neurological behaviours entry was “help restore neurological behaviours”. The side effects result in series [1] is on record as “without registering any side effects”. Besides, in the series with cholesterol absorption, the cholesterol lowering effect result is “shows a cholesterol lowering effect”.

As to `C=CC(O)(CC[C@@H](C)[C@H]1CC[C@H]2[C@@H]3CC=C4C[C@@H](O)CC[C@]4(C)[C@H]3CC[C@]12C)C(C)C` (stereo partly drawn) [24(S)-Saringosterol], in the series on neurological behaviours, the restore neurological behaviours entry is reported as “help restore neurological behaviours”. Moreover, the side effects entry in series [1] is on record as “without registering any side effects”.

Source of the values: patent US20230263809A1, “FOOD SUPPLEMENT FOR ALZHEIMER” (FOLIUM BIOSCIENCES EUROPE B.V., priority 2019, published 2023).
